Source: US5859227A, “RNA sequences which interact with RNA-binding proteins” (Bearsden Bio, Inc., priority 1997, dated 1999)
Values belong to the molecule of their own block, whether it stands above or below them.

Assays:
[1] = tested on: IRE RNA / RNA binding protein (K562 extract); assay: High throughput filter binding assay, labeled IRE RNA and K562 protein extract; conditions: hemin 1 to 100 μM; FeCl3 and desferroxiamine 1 μM to 1 mM
Experimental: (§1) a. Filter binding. Filter binding involves trapping interacting molecules on a filter while non interacting molecules pass through the filter. This procedure is known to those of skill in the art. For example, prewet nitrocellulose filters are equilibrated in 1× binding buffer. The binding reaction is then applied to the filter by vacuum filtration to remove unbound RNA. The filter is washed in 1× binding buffer, scintillation cocktail is added and the amount of protein-bound RNA is determined by scintillation counting.
All binding reactions were performed in 96-well v-bottom plates in a final volume of 10 μl. The assays were constituted and performed as described below. Specifically, assays were performed by (1) forming a binding solution including RNA molecules, 7.5 mM BTP at pH 8.5, 10 mM KCl, 5 mM MgCl2, 0.2 mM DTT, and 10% glycerol, (2) heating the binding solution to denature the RNA molecules, (3) cooling the binding solution, (4) adding RNA binding proteins to the binding solution, (5) loading the binding solution onto a filter, and (6) detecting the amount RNA retain on the filter. It is preferred that the samples be loaded on to a filter of either pure nitrocellulose or a mixed cellulose ester (MCA). It is also preferred that the filters have a 0.2μ pore size, although filters with a 0.45μ pore size will also bind the RNA/RNA binding protein complex. It is preferred that, prior to loading the binding solution onto a filter, the volume is increased. For this purpose, it is preferred that the dilution solution has the same buffer components as the binding solution except lacking the density agent. For a 10 μl volume it is preferred that the final volume be about 100 μl. […]
Binding assays were performed with wild-type IRE RNA and K562 protein extract in the presence of sources of iron or iron chelators to determine the ability of the filter assay to detect the modulation of binding interactions by small molecules. […] The reactions were analyzed by gel shifts to visualize the results of the filter assay. […]

[2] = tested on: AUUUA RNA / RNA binding protein (K562 extract); assay: Exploratory library screen, filter binding, 32P-labeled AUUUA RNA and K562 extract; conditions: 10 μM
Source text: FIG. 4 is a graph of the amount of radioactively labeled RNA retained on a filter (expressed in percent of the amount of RNA retained on a filter in a reference binding solution) following loading of various binding solutions. All of the binding solutions contained radioactively labeled AUUUA RNA either alone or including various other components. The first column represents a binding solution without RNA binding protein. The remaining columns represent binding solution containing RNA binding protein (K562 extract). Columns 3 through 8 correspond to binding solutions including the indicated test compound.
as §1
All binding reactions were performed in 96-well v-bottom plates in a final volume of 10 μl. The assays were constituted and performed as described below. Specifically, assays were performed by (1) forming a binding solution including RNA molecules, 7.5 mM BTP at pH 8.5, 10 mM KCl, 5 mM MgCl2, 0.2 mM DTT, and 10% glycerol, (2) heating the binding solution to denature the RNA molecules, (3) cooling the binding solution, (4) adding RNA binding proteins to the binding solution, (5) loading the binding solution onto a filter, and (6) detecting the amount RNA retain on the filter. It is preferred that the samples be loaded on to a filter of either pure nitrocellulose or a mixed cellulose ester (MCA). It is also preferred that the filters have a 0.2μ pore size, although filters with a 0.45μ pore size will also bind the RNA/RNA binding protein complex. It is preferred that, prior to loading the binding solution onto a filter, the volume is increased. For this purpose, it is preferred that the dilution solution has the same buffer components as the binding solution except lacking the density agent. For a 10 μl volume it is preferred that the final volume be about 100 μl. It is also preferred that the binding solution be loaded onto the filter under vacuum. It is also preferred that the filter is washed twice prior to detecting the amount of RNA retained on the filter. Preferably the wash solution had the same composition as the dilution solution. However, TE (pH 8.0), PBS, or TCA can also be used as wash solutions. In most of the assays described below, the RNA molecules were labeled with ^32 P.
The library was initially screened at 10 μM against ^32 P-labeled AUUUA RNA. Several methods of introducing the compounds into the binding reaction were tested. Initially the compounds were co-incubated with the RNA and protein, producing modest results. Next, preincubation with either the protein extract or the RNA was tried with improved results.
Seventeen compounds were chosen for further analysis at 100 nM, 1 μM and 10 μM using both AUUUA and IRE RNAs based on the results from three screening efforts (Exps. 29-31). Table 2 summarizes the results from these compounds at 10 μM. The results are also shown graphically in FIG. 4. […] Compounds D9 and H2, chosen as negative controls from the initial screening, continued to have no effect in the dose dependent screen (Exp. 33) and were identified as vehicle controls.
A 96 member random compound library was screened with the disclosed high throughput assay. The compounds were initially screened at 10 μM against ^32 P-labeled AUUUA RNA. […] Seventeen compounds were chosen for further analysis at 100 nM, 1 μM and 10 μM using both AUUUA and IRE RNA molecules to determine if any selectivity of the compounds could be detected. […]

TNF-α production = conditions: previously shown; cited from earlier work
[3] = tested on: human C4b-binding protein 5' UTR / RNA binding proteins (K562 cell line protein); assay: Gel shift specificity (competition), labeled C4b-binding protein 5' UTR and K562 protein; conditions: 100 and 1,000 fold molar excess of unlabeled RNA
Source text: (§2) A primer pair was designed from the 5' end of the UTR and a 3' primer encompassing nucleotide +1 with the use of the OLIGO program. Similar primers encompassing the same criteria can be designed either manually without the use of this program, or using another similar oligonucleotide design program. In addition, the 5' primer contained 24 nucleotides at the 5' end encoding for the T7 promoter. Clones containing the above sequences were generated by rtPCR from total RNA obtained from the K562 lymphoblastoma cell line. The clones were restriction mapped and analyzed by gel electrophoresis to confirm their identity.
(§3) PCR products generating a single band (in the undigested lanes) were then used for in vitro transcription of labeled RNA using Ambion's Maxiscript Kit. The labeled transcripts were used in the RNA binding protein detection assay described above. The binding solutions containing the labeled RNA were incubated with 2 μg of protein isolated from the same cell from which the rtPCR product was generated, and the products were resolved on a non-denaturing gel. […] In this experiment, a 100 and 1,000 fold molar excess of unlabeled identical RNA or the same excess of different RNA are added to the binding reactions.

[4] = tested on: human CD45 5' UTR / RNA binding proteins (K562 cell line protein); assay: Gel shift specificity (competition), labeled CD45 5' UTR and K562 protein; conditions: 100 and 1,000 fold molar excess of unlabeled RNA
Source text: as §2, §3

Molecule: [Cl][Fe]([Cl])[Cl] [FeCl3]
modulation of IRE/protein binding by small molecules [1]: concentration-dependent inhibition of binding

Molecule: CC(=O)N(O)CCCCCNC(=O)CCC(=O)N(O)CCCCCNC(=O)CCC(=O)N(O)CCCCCN [Desferroxiamine, desferroxiamine]
modulation of IRE/protein binding by small molecules [1]: did not change the amount IRE/protein complex formed

labeled AUUUA RNA retained on filter, percent of RNA&K562 reference, Experiment #29 ([2]; RNA&K562 = 100): 114.53% | labeled AUUUA RNA retained on filter, percent of RNA&K562 reference, Experiment #30 ([2]; RNA&K562 = 100): 66.94% | labeled AUUUA RNA retained on filter, percent of RNA&K562 reference, Experiment #31 ([2]; RNA&K562 = 100): 127.28% | labeled AUUUA RNA retained on filter, percent of RNA&K562 reference, Experiment #33 ([2]; RNA&K562 = 100): 135.24% | Avg. % (labeled AUUUA RNA retained on filter) ([2]; mean of Experiments #33, #31, #30, #29): 111.00%
Molecule: CC(=NN=C(N)N)c1cc(NC(=O)CCCCCCCCC(=O)Nc2cc(C(C)=NN=C(N)N)cc(C(C)=NN=C(N)N)c2)cc(C(C)=NN=C(N)N)c1 [Compound G10, CNI-1493]
change in counts across the experiments ([2]; 4 experiments): substantial increase in counts in 3 of the 4 experiments | post-transcriptional inhibition of TNF-α production (TNF-α production): post-transcriptionally inhibit TNF-α production

Molecule: hemin
modulation of IRE/protein binding by small molecules [1]: concentration-dependent inhibition of binding

B1: C4b-binding protein: 5' UTR RNA of human C4b-binding protein alpha chain, SEQ ID NO:3 (nucleic acid)
chain: GCUGCUUUAUUUCUGCUGUUAAUCAUUCAUUGGGCCCGUCAAAAGUUUCUGCCCAUCUAUUUCCAUCAACCGUCCUUGACCAGCCAACCACAUGGCUGAAAUUCAGG
modifications: expressed or natural sequence
competition of complex formation by unlabeled RNA [3]: concentration dependent inhibition of complex formation

B2: CD45: 5' UTR RNA of human CD45, SEQ ID NO:4 (nucleic acid)
chain: CUGACAUCAUCACCUAGCAGUUCAUGCAGCUAGCAAGUGGUUUGUUCUUAGGGUAACAGAGGAGGAAAUUGUUCCUCGUCUGAUAAGACAACAGUGGAGAAAGGACGCAUGCAGUUUCUUAGGGACACGGCUGACUUCCAGAUAUGACCAUGUAUUUGUGGCUUAAACUCUUGG
competition of complex formation by unlabeled RNA [4]: concentration dependent inhibition of complex formation
